Measurements: patent US9051295B2, “1-substituted indazole derivative” (Dainippon Sumitomo Pharma Co., Ltd., priority 2012, dated 2015)

Molecular target: T1, human α7 nAChR (Homo sapiens, UniProt P36544)
T1 construct: expressed in transfected cells; host or cells: GH4C1 cells (rat pituitary, ATCC CCL-82.2)
Assay: Evaluation of PAM activity with human α7 nACh receptor stably expressing cells (aequorin luminescence, FDSS7000, ACh EC20)
Format: cell-based
Conditions: for PAM activity for α7 nAChR (in words): statement on Table 8 data; for α7PAM (%) @ 10 μmol/L: test compound 10 μmol/L, ACh at EC20, ratio of RLU (Max-Min) of test-compound wells to control wells
Text: Evaluation of PAM Activity with Human α7 nACh Receptor Stably Expressing Cells
(1) Human α7 nAChR Stably Expressing Cells
Human α7 nAChR stably expressing cells were generated and cultured. In detail, GH4C1 cells derived from rat pituitary (cat#CCL-82.2, ATCC, USA) were used as a host cell. PcDNA3.1Zeo vector containing a nucleotide sequence encoding a protein GenBank BAC81731 and pcDNA3.1 vector containing human α7 nAChR gene (cat#V790-20, invitrogen, Carlsbad, Calif., USA) were transfected to the cells to give aequorins and human α7 nAChR stably expressing cells respectively. The aequorins and human α7 nAChR stably expressing cells were screened with Zeocin (cat#R25001, invitrogen, Carlsbad, Calif., USA) and Geneticin (cat#10131-027, invitrogen, Carlsbad, Calif., USA) respectively.
The cells were cultured in F-10 Nutrient Mixture (Ham) medium (cat#11550-043, invitrogen, Carlsbad, Calif., USA) containing 2.5% fetal bovine serum (cat#2917354, ICN Biomedicals, Inc, USA), 15% inactivated horse serum (cat#26050-088, invitrogen, Carlsbad, Calif., USA), 1 μg/mL Geneticin, and 5 μg/mL Puromycin (cat#14861-84, invitrogen, Carlsbad, Calif., USA), in a Collagen Type 1-coated dish (cat#4030-010, iwaki, Tokyo, Japan). During the culture, the medium was replaced with fresh medium in every 2 to 3 days, and the cells were treated with TrypLE Express (cat#45604-021, invitrogen, Carlsbad, Calif., USA) to collect them in every 7 days. Thus, the cells were subcultured.
7 Days after subculturing, the cells were treated with TrypLE Express to collect them when they were about 80% confluent. The cells were suspended in a reaction medium containing Hanks (cat#14065-056, invitrogen, Carlsbad, Calif., USA)/20 mmol/L Hepes (cat#15630-080, invitrogen, Carlsbad, Calif., USA), Buffer (pH 7.4), F-10 Nutrient Mixture (Ham), and 0.1 mg/mL Geneticin, and the suspension was seeded in a 384-well plate (cat#781090, Greiner, Germany) at 20000 cells/25 μL per well.
On the next day after seeding, Viviren (cat#E649X, Promega, Madison, Wis., USA) was added to the medium so that the final concentration could be 4 μmol/L (15 μL/well). The plates were centrifuged and then placed in the dark for 4 hours at room temperature.
(2) Preparation of the Test Samples
Each of the test compounds was dissolved in DMSO to prepare each test sample at a concentration of 1000-fold the final concentration. To the solution was added Hanks/20 mM HEPES/0.2% BSA (cat#A3803, Sigma, St. Louis, Mo., USA), and the concentration was adjusted to 6-fold the final concentration.
(3) Evaluation of PAM Activity
FDSS7000 (Hamamatsu Photonics) was used to detect the luminescence signal evoked by α7 nAChR stimulation. The cells and a luminescent substrate were put on a plate, and the test sample was added thereto. […] After the addition of ACh, the luminescence signal (the central wavelength: 465 nm) was measured for 138 seconds to calculate RLU (Max-Min). The ratio of the RLU (Max-Min) of the test-compound-containing wells to that of the control wells was defined as PAM activity.

T1 sequence (P36544 23-502): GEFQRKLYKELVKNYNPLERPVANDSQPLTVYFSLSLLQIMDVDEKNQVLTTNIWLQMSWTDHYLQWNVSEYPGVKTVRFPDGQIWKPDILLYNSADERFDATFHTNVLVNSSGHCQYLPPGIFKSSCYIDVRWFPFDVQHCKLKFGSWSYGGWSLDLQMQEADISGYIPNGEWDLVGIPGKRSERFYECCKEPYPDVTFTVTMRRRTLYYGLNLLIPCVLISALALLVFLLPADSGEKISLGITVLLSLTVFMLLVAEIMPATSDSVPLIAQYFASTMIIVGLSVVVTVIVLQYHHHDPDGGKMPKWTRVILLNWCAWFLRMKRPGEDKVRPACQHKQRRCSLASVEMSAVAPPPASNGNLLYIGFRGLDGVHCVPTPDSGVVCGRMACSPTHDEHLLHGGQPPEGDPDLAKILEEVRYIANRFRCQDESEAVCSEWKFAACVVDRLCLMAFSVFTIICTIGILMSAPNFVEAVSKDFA

SMILES | PAM activity for α7 nAChR (in words) | α7PAM (%) @ 10 μmol/L [%]
CCc1ccc2c(cnn2[C@H]2CC[C@@H](NC(=O)C3CCC(F)(F)CC3)CC2)c1 [Example 4, N-(cis-4-(5-ethyl-1H-indazol-1-yl)cyclohexyl)-4,4-difluorocyclohexanecarboxamide] | stronger PAM activity than others | 2344
CCc1ccc2c(cnn2[C@H]2CC[C@@H](NC(=O)NC3CCC(F)(F)CC3)CC2)c1 [Example 5, 1-(4,4-difluorocyclohexyl)-3-(cis-4-(5-ethyl-1H-indazol-1-yl)cyclohexyl)urea] |  | 1368
Cc1ccc2c(cnn2C2CCN(C(=O)NC3CCCCC3)CC2)c1 [Example 8, N-cyclohexyl-4-(5-methyl-1H-indazol-1-yl)piperidine-1-carboxamide] | stronger PAM activity than others | 3053
Cc1ccc2c(cnn2C2CCN(C(=O)NC3CCC(F)(F)CC3)CC2)c1 [Example 13, N-(4,4-difluorocyclohexyl)-4-(5-methyl-1H-indazol-1-yl)piperidine-1-carboxamide] | stronger PAM activity than others | 3399
CCCc1ccc2c(cnn2C2CCN(C(=O)NC3CCOCC3)CC2)c1 [Example 15, 4-(5-propyl-1H-indazol-1-yl)-N-(tetrahydro-2H-pyran-4-yl)piperidine-1-carboxamide] |  | 1025
CCc1ccc2c(cnn2C2CCN(C(=O)N[C@H]3CC[C@H](OC)CC3)CC2)c1 [Example 16, 4-(5-ethyl-1H-indazol-1-yl)-N-(trans-4-methoxycyclohexyl)piperidine-1-carboxamide] |  | 1764
CCOc1ccc2c(cnn2C2CCN(C(=O)NC3CCCC3)CC2)c1 [Example 17] | stronger PAM activity than others | 
CCOc1ccc2c(cnn2C2CCN(C(=O)NC3CCCCC3)CC2)c1 [Example 18, N-cyclohexyl-4-(5-ethoxy-1H-indazol-1-yl)piperidine-1-carboxamide] | stronger PAM activity than others | 6779
CCc1ccc2c(cnn2C2CCN(C(=O)NC3CCCC3)CC2)c1 [Example 20] | stronger PAM activity than others | 
CCc1ccc2c(cnn2C2CCN(C(=O)NC3CCCOC3)CC2)c1 (stereo not shown) [Example 22, 4-(5-ethyl-1H-indazol-1-yl)-N-(tetrahydro-2H-pyran-3-yl)piperidine-1-carboxamide] |  | 1425
CCc1ccc2c(cnn2C2CCN(C(=O)NC3CCC(F)(F)CC3)CC2)c1 [Example 23] | stronger PAM activity than others | 6196
CCOc1ccc2c(cnn2C2CCN(C(=O)NC3CCC(F)(F)CC3)CC2)c1 [Example 27, N-(4,4-difluorocyclohexyl)-4-(5-ethoxy-1H-indazol-1-yl)piperidine-1-carboxamide] |  | 1673
COCCCc1ccc2c(cnn2C2CCN(C(=O)N[C@H]3CC[C@H](OC)CC3)CC2)c1 [Example 32] |  | 430
COc1ccc2c(cnn2C2CCN(C(=O)NC3CCCCC3)CC2)c1 [Example 40] | stronger PAM activity than others | 
COc1ccc2c(cnn2C2CCN(C(=O)NC3CCC(F)(F)CC3)CC2)c1 [Example 41, N-(4,4-difluorocyclohexyl)-4-(5-methoxy-1H-indazol-1-yl)piperidine-1-carboxamide] | stronger PAM activity than others | 3749
Cc1ccc2c(c1)c(C)nn2C1CCN(C(=O)NC2CCC(F)(F)CC2)CC1 [Example 45, N-(4,4-difluorocyclohexyl)-4-(3,5-dimethyl-1H-indazol-1-yl)piperidine-1-carboxamide] |  | 1576
CC(C)Oc1ccc2c(cnn2C2CCN(C(=O)NC3CCCCC3)CC2)c1 [Example 48, N-cyclohexyl-4-(5-isopropoxy-1H-indazol-1-yl)piperidine-1-carboxamide] |  | 1202
CCc1cccc2c1cnn2C1CCN(C(=O)NC2CCC(F)(F)CC2)CC1 [Example 64, N-(4,4-difluorocyclohexyl)-4-(4-ethyl-1H-indazol-1-yl)piperidine-1-carboxamide] |  | 1133
COCc1nn(C2CCN(C(=O)NC3CCCCC3)CC2)c2ccc(C)cc12 [Example 68] |  | 430

SMILES | PAM activity for α7 nAChR (in words) | α7PAM (%) @ 10 μmol/L [%]
CCCc1ccc2c(cnn2C2CCN(C(=O)NC3CCC(OC)CC3)CC2)c1 (stereo not shown) [Example 76] |  | 420
Cc1ccc2c(cnn2C2CCN(C(=O)N[C@H]3CCCCC3(F)F)CC2)c1 [Example 79, (S)—N-(2,2-difluorocyclohexyl)-4-(5-methyl-1H-indazol-1-yl)piperidine-1-carboxamide] |  | 1064
Cc1ccc2c(cnn2C2CCN(C(=O)N[C@H]3CCCC3(F)F)CC2)c1 [Example 80, (S)—N-(2,2-difluorocyclopentyl)-4-(5-methyl-1H-indazol-1-yl)piperidine-1-carboxamide] |  | 1033
Cc1ccc2c(cnn2C2CCN(C(=O)NC3CCC(OCC(F)(F)F)CC3)CC2)c1 (stereo not shown) [Example 83] |  | 420
CCO[C@H]1CC[C@H](NC(=O)N2CCC(n3ncc4cc(C)ccc43)CC2)CC1 [Example 90, N-(trans-4-ethoxycyclohexyl)-4-(5-methyl-1H-indazol-1-yl)piperidine-1-carboxamide] |  | 1467
COC1CCC(NC(=O)N2CCC(n3ncc4c(Br)cccc43)CC2)CC1 (stereo not shown) [Example 98] |  | 89
O=C(C1CCOCC1)N1CCC(n2ncc3cc(F)ccc32)CC1 [Example 104] |  | 190
CCc1ccc2c(cnn2C2CCN(C(=O)C3CCOCC3)CC2)c1 [Example 111] |  | 410
CCc1ccc2c(cnn2[C@H]2CC[C@@H](NC(=O)C3CCCCC3)CC2)c1 [Example 119] | stronger PAM activity than others | 
CCc1ccc2c(cnn2[C@H]2CC[C@@H](NC(=O)[C@H]3CC[C@H](OC)CC3)CC2)c1 [Example 122] |  | 410
CO[C@H]1CC[C@H](NC(=O)N2CCC(n3ncc4cc(-c5ccc(F)cc5)ccc43)CC2)CC1 [Example 155] |  | 210
CCOc1cccc2c1cnn2C1CCN(C(=O)N[C@H]2CC[C@@H](OC)CC2)CC1 [Example 184] |  | 200
O=C(Nc1ccc(C(F)(F)F)nc1)N1CCC(n2ncc3cc(C4CC4)ccc32)CC1 [Example 187] |  | 220
O=C(NC1CCC(F)(F)CC1)N1CCC(n2ncc3c(OC(F)F)cccc32)CC1 [Example 201] |  | 370
CO[C@H]1CCC[C@H](NC(=O)N2CCC(n3ncc4cc(C5CC5)ccc43)CC2)C1 [Example 211, 4-(5-cyclopropyl-1H-indazol-1-yl)-N-[(1S,3S)-3-methoxycyclohexyl]piperidine-1-carboxamide] |  | 1034
COCc1c(C)ccc2c1cnn2C1CCN(C(=O)NC2CCC(F)(F)CC2)CC1 [Example 213] |  | 800
COCC1CCC(NC(=O)N2CCC(n3ncc4cc(C)ccc43)CC2)CC1 (stereo not shown) [Example 220] | stronger PAM activity than others | 
CO[C@H]1CC[C@H](NC(=O)N2CCC(n3ncc4c(C)c(C)ccc43)CC2)CC1 [Example 225] |  | 480
